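1) Cells in 96-well plates. 2) Compound, 48 h, 5 concentrations. 3) Linear interpolation between surrounding doses. 4) Unreached endpoint = highest concentration. GI50 = concentration required for 50% inhibition of growth. TGI denotes the concentration required for complete inhibition of growth.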
Tests used:
Test in all cases: growth of human tumour cells (NCI), 48 h
[1] = tested on: MOLT-4 leukemia
[2] = tested on: SR leukemia
[3] = tested on: OVCAR-8 ovarian
[4] = tested on: HT29 colon
[5] = tested on: KM12 colon
[6] = tested on: 786-0 renal
[7] = tested on: HOP-92 NSCLC
[8] = tested on: TK-10 renal
[9] = tested on: SK-MEL-28 melanoma
[10] = tested on: M14 melanoma
[11] = tested on: BT-549 breast
[12] = tested on: SK-MEL-5 melanoma
[13] = tested on: SW-620 colon
[14] = tested on: OVCAR-3 ovarian
[15] = tested on: UACC-257 melanoma
[16] = tested on: CCRF-CEM leukemia
[17] = tested on: A549 NSCLC
[18] = tested on: A498 renal
[19] = tested on: COLO 205 colon
[20] = tested on: MDA-MB-435
[21] = tested on: DU-145 prostate
[22] = tested on: NCI-H522 lung
[23] = tested on: SK-OV-3 ovarian
[24] = tested on: MALME-3M melanoma
[25] = tested on: SF-268 CNS
[26] = tested on: NCI-H460 lung
[27] = tested on: U251 CNS
[28] = tested on: NCI-H23 lung
[29] = tested on: HCT-116 colon
[30] = tested on: HL-60(TB) leukemia
[31] = tested on: SN12C renal
[32] = tested on: SNB-19 CNS
[33] = tested on: EKVX NSCLC
[34] = tested on: RXF 393 renal
[35] = tested on: SF-539 CNS
[36] = tested on: OVCAR-5 ovarian
[37] = tested on: RPMI-8226 leukemia
[38] = tested on: PC-3 prostate
[39] = tested on: HCT-15 colon
[40] = tested on: SK-MEL-2 melanoma
[41] = tested on: MCF7 breast
[42] = tested on: MDA-MB-231 breast
[43] = tested on: IGROV1 ovarian
[44] = tested on: NCI-H226 lung
[45] = tested on: HOP-62 NSCLC
[46] = tested on: ACHN renal
[47] = tested on: SNB-75 CNS
[48] = tested on: HCC-2998 colon
[49] = tested on: OVCAR-4 ovarian
[50] = tested on: UO-31 renal
[51] = tested on: T-47D breast
[52] = tested on: UACC-62 melanoma
[53] = tested on: SF-295 CNS
[54] = tested on: CAKI-1 renal
[55] = tested on: HS 578T breast
[56] = tested on: LOX IMVI melanoma
[57] = tested on: NCI/ADR-RES ovarian
[58] = tested on: K-562 leukemia

COc1ccc(NC(=O)c2sc3nc(C)c(C(O)c4ccc(OC)cc4)cc3c2N)cc1 (stereo unspecified)
GI50 [1]: 2170 nM
TGI [1]: > 50000 nM
GI50 [2]: 256 nM
TGI [2]: > 50000 nM
GI50 [3]: 1790 nM
TGI [3]: > 50000 nM
GI50 [4]: 1450 nM
TGI [4]: 19400 nM
GI50 [5]: 760 nM
TGI [5]: > 50000 nM
GI50 [6]: 3350 nM
TGI [6]: > 50000 nM
GI50 [7]: 5620 nM
TGI [7]: > 50000 nM
GI50 [8]: 17100 nM
TGI [8]: > 50000 nM
GI50 [9]: 6220 nM
TGI [9]: > 50000 nM
GI50 [10]: 1000 nM
TGI [10]: > 50000 nM
GI50 [11]: 1810 nM
TGI [11]: > 50000 nM
GI50 [12]: 569 nM
TGI [12]: 6820 nM
GI50 [13]: 1260 nM
TGI [13]: > 50000 nM
GI50 [14]: 365 nM
TGI [14]: 5310 nM
GI50 [15]: 11100 nM
TGI [15]: > 50000 nM
GI50 [16]: 1440 nM
TGI [16]: > 50000 nM
GI50 [17]: 258 nM
TGI [17]: > 50000 nM
GI50 [18]: 156 nM
TGI [18]: 39100 nM
GI50 [19]: 1570 nM
TGI [19]: 31600 nM
GI50 [20]: 121 nM
TGI [20]: 387 nM
GI50 [21]: 1650 nM
TGI [21]: > 50000 nM
GI50 [22]: 1270 nM
TGI [22]: > 50000 nM
GI50 [23]: 1890 nM
TGI [23]: > 50000 nM
GI50 [24]: 2650 nM
TGI [24]: > 50000 nM
GI50 [25]: 2280 nM
TGI [25]: > 50000 nM
GI50 [26]: 170 nM
TGI [26]: 9970 nM
GI50 [27]: 1430 nM
TGI [27]: > 50000 nM
GI50 [28]: 2060 nM
TGI [28]: > 50000 nM
GI50 [29]: 983 nM
TGI [29]: > 50000 nM
GI50 [30]: 1230 nM
TGI [30]: > 50000 nM
GI50 [31]: 2250 nM
TGI [31]: > 50000 nM
GI50 [32]: 1840 nM
TGI [32]: > 50000 nM
GI50 [33]: 3130 nM
TGI [33]: > 50000 nM
GI50 [34]: 411 nM
TGI [34]: 2990 nM
GI50 [35]: 1020 nM
TGI [35]: 4440 nM
GI50 [36]: 1870 nM
TGI [36]: > 50000 nM
GI50 [37]: 1620 nM
TGI [37]: > 50000 nM
GI50 [38]: 1890 nM
TGI [38]: > 50000 nM
GI50 [39]: 414 nM
TGI [39]: > 50000 nM
GI50 [40]: 1740 nM
TGI [40]: > 50000 nM
GI50 [41]: 196 nM
TGI [41]: > 50000 nM
GI50 [42]: 2060 nM
TGI [42]: > 50000 nM
GI50 [43]: 1850 nM
TGI [43]: > 50000 nM
GI50 [44]: 3540 nM
TGI [44]: > 50000 nM
GI50 [45]: 2030 nM
TGI [45]: > 50000 nM
GI50 [46]: 2510 nM
TGI [46]: > 50000 nM
GI50 [47]: 815 nM
TGI [47]: 17300 nM
GI50 [48]: 804 nM
TGI [48]: 2890 nM
GI50 [49]: 5120 nM
TGI [49]: > 50000 nM
GI50 [50]: 2850 nM
TGI [50]: > 50000 nM
GI50 [51]: 10500 nM
TGI [51]: > 50000 nM
GI50 [52]: 621 nM
TGI [52]: > 50000 nM
GI50 [53]: 299 nM
TGI [53]: 9790 nM
GI50 [54]: 803 nM
TGI [54]: > 50000 nM
GI50 [55]: 821 nM
TGI [55]: 4090 nM
GI50 [56]: 1400 nM
TGI [56]: > 50000 nM
GI50 [57]: 1280 nM
TGI [57]: 4410 nM
GI50 [58]: 509 nM
TGI [58]: > 50000 nM
